Literature values, collected in publication PMC5278571, “Optimal doses of caspofungin during continuous venovenous hemodiafiltration in critically ill patients” (Critical Care, 2017).

Assays:
Settings in all cases: murine model of disseminated candidiasis; cited from earlier work
Candida glabrata = test system: Candida glabrata
Method: (§1) Taking into account a MIC of 0.1 mg/L [4], and using the target pharmacokinetics/pharmacodynamics (PK/PD) described for micafungin, we would have reac ...

Candida albicans = test system: Candida albicans
Method: as §1

C. parapsilosis = test system: C. parapsilosis
Method: as §1

## micafungin
Candida glabrata
  AUC/MIC associated with 1 log kill/24 h: 450
Candida albicans
  AUC/MIC associated with 1 log kill/24 h: 865
C. parapsilosis
  AUC/MIC associated with 1 log kill/24 h: 1185
